From patent US20040242591A1, “Oxazolidinone derivatives as pontential antimicrobials” (priority 2001, published 2004)

Tests used:
Strep.pyog. ATCC 19615 = experiment: MIC by agar incorporation method, S.pyogenes 19615; assay type: cell-based, Streptococcus pyogenes; design: unit not given here; settings: Mueller Hinton agar, 10^4 CFU/spot, 18 hours
Excerpt: 6) Strep.pyog. ATCC 19615—Streptococcus pyogenes

MRSA 562 = experiment: MIC by agar incorporation method, MRSA 562; assay type: cell-based, Methicillin Resistant Staphylococcus aureus; design: unit not given here; settings: Mueller Hinton agar, 10^4 CFU/spot, 24 hours
Strep. pne. ATCC 6303 = experiment: MIC by agar incorporation method, S. pneum 6303; assay type: cell-based, Streptococcus pneumoniae; settings: Mueller Hinton agar, 10^4 CFU/spot, 18 hours
Excerpt: 5) Strep. pne. ATCC 6303—Streptococcus pneumoniae ATCC 6303

Ent. faecalis ATCC 29212 = experiment: MIC by agar incorporation method, E.faecalis 29212; assay type: cell-based, Enterococcus faecalis; design: unit not given here; settings: Mueller Hinton agar, 10^4 CFU/spot, 18 hours
Excerpt: 3) Ent. faecalis ATCC 29212—Enterococcus faecalis ATCC 29212

VRE 6A = experiment: MIC by agar incorporation method, VRE 6A; assay type: cell-based, Enterococcus faecium; design: unit not given here; settings: Mueller Hinton agar, 10^4 CFU/spot, 18 hours
Excerpt: 4) Ent. faecium […]—Enterococcus faecium 6A Van®, Cipro®

S.aureus ATCC 25923 = experiment: MIC by agar incorporation method, S.aureus 25923; assay type: cell-based, Staphylococus aureus; design: unit not given here; settings: Mueller Hinton agar, 10^4 CFU/spot, 18 hours
S. pneum AB 34 = experiment: MIC by agar incorporation method, S. pneum AB 34; assay type: cell-based, Streptococcus pneumoniae; design: unit not given here; settings: Mueller Hinton agar, 10^4 CFU/spot, 18 hours
MRSA 15187 = experiment: MIC by agar incorporation method, MRSA 15187; assay type: cell-based, Methicillin Resistant Staphylococcus aureus; design: unit not given here; settings: Mueller Hinton agar, 10^4 CFU/spot, 24 hours
Excerpt: 2) MRSA 15187—Methicillin Resistant Staphylococcus aureus

MRSA 33 = experiment: MIC by agar incorporation method, MRSA 33; assay type: cell-based, Methicillin Resistant Staphylococcus aureus; design: unit not given here; settings: Mueller Hinton agar, 10^4 CFU/spot, 24 hours

SMILES	In Vitro (MIC) S.pyogenes 19615 (Strep.pyog. ATCC 19615)	In Vitro (MIC) MRSA 562 (MRSA 562)	In Vitro (MIC) S. pneum 6303 (Strep. pne. ATCC 6303) [µg/mL]	In Vitro (MIC) E.faecalis 29212 (Ent. faecalis ATCC 29212)	In Vitro (MIC) VRE 6A (VRE 6A)	In Vitro (MIC) S.aureus 25923 (S.aureus ATCC 25923)	In Vitro (MIC) S. pneum AB 34 (S. pneum AB 34)	In Vitro (MIC) MRSA 15187 (MRSA 15187)	In Vitro (MIC) MRSA 33 (MRSA 33)
CC(=O)NC[C@H]1CN(c2ccc(N3CCN(Cc4cc(Br)c([N+](=O)[O-])o4)CC3)c(F)c2)C(=O)O1 [Compound No. 25, (S)-N-[[3-[3-Fluoro-4[N-1-[4-{2-Furyl-4-bromo-(nitro)methyl}]piperazinyl]-phenyl]-2-oxo-5-oxazolidinyl]methyl]acetamide]	0.5	2	2	2	2	2	2	1	2
CC(=O)NC[C@H]1CN(c2ccc(N3CCN(C(=O)c4ccc(NC(C)=O)s4)CC3)c(F)c2)C(=O)O1 [Compound No. 29, (S)-N-[[3-[3-Fluoro-1-[N-1-[4-{2-thiophenoyl-(5-acetamido)}]piperazinyl]phenyl]-2-oxo-5-oxazolidinyl]methyl]acetamide]	0.5	4	0.5	4	4	8	1	4	4
CC(=O)NC[C@H]1CN(c2ccc(N3CCN(C(=O)c4cc([N+](=O)[O-])[nH]n4)CC3)c(F)c2)C(=O)O1 [Compound No. 31]	1	>8	1	4	4	>8	1	>8	>8
CC(=O)NC[C@H]1CN(c2ccc(N3CCN(C(=O)c4ccc(N)s4)CC3)c(F)c2)C(=O)O1 [Compound No. 34, (S)-N-[[3-[3-Fluoro-4-[N-1-[4-{2-thiophenoyl-(5-amino)}]piperazinyl]phenyl]-2-oxo-5-oxazolidinyl]methyl]acetamide]	1	4	4	4	4	8	4	8	8
CC(=O)NC[C@H]1CN(c2ccc(N3CCN(C(=O)c4ccc(-c5ccc(Cl)cc5[N+](=O)[O-])o4)CC3)c(F)c2)C(=O)O1 [Compound No. 35]	1	1	1	0.5	1	1	1	1	1
CC(=O)NC[C@H]1CN(c2ccc(N3CCN(C(=O)c4occc4C)CC3)c(F)c2)C(=O)O1 [Compound No. 36, (S)-N-[[3-[3-Fluoro-4-[N-1-[4-{2-furoyl-(3-methyl)}]piperazinyl]phenyl]-2-oxo-5-oxazolidinyl]methyl]acetamide]	1	2	0.5	2	1	2	1	2	2
CC(=O)NC[C@H]1CN(c2ccc(N3CCN(C(=O)c4oc([N+](=O)[O-])cc4C)CC3)c(F)c2)C(=O)O1 [Compound No. 37, (S)-N-[[3-[3-Fluoro-4-[N-1-[4-{2-furoyl-(3-methyl-5-nitro)}]piperazinyl]phenyl]-2-oxo-5-oxazolidinyl]methyl]acetamide]	<0.06	0.5	0.25	0.25	0.5	0.5	0.125	0.5	0.5
O=C(CF)NC[C@H]1CN(c2ccc(N3CCC(Cc4ccc([N+](=O)[O-])o4)CC3)c(F)c2)C(=O)O1 [Compound No. 42, (S)-N-[[3-[3-Fluoro-4-[N-1-[4-{2-furyl(5-nitro)methyl}]piperinyl]phenyl]-2-oxo-5-oxazolidinyl]methyl]-fluoroacetamide]	0.5	2	1	4	4	4	2	2	4
O=C(NC[C@H]1CN(c2ccc(N3CCN(Cc4ccc([N+](=O)[O-])o4)CC3)c(F)c2)C(=O)O1)C(F)F [Compound No. 45, (S)-N-[[3-[3-Fluoro-4-[N-1-[4-{2-furyl(5-nitro)methyl}]piperazinyl]phenyl]-2-oxo-5-oxazolidinyl]methyl]-difluoroacetamide]	0.5	2	0.5	2	2	2	2	1	2

Now from value to compound:

In Vitro (MIC) S.pyogenes 19615 (Strep.pyog. ATCC 19615)	In Vitro (MIC) MRSA 562 (MRSA 562)	In Vitro (MIC) S. pneum 6303 (Strep. pne. ATCC 6303) [µg/mL]	In Vitro (MIC) E.faecalis 29212 (Ent. faecalis ATCC 29212)	In Vitro (MIC) VRE 6A (VRE 6A)	In Vitro (MIC) S.aureus 25923 (S.aureus ATCC 25923)	In Vitro (MIC) S. pneum AB 34 (S. pneum AB 34)	In Vitro (MIC) MRSA 15187 (MRSA 15187)	In Vitro (MIC) MRSA 33 (MRSA 33)	SMILES
2	4	2	4	4	8	2	4	4	CC(=O)NC[C@H]1CN(c2ccc(N3CCN(C(=O)c4cc(N(C)C)c([N+](=O)[O-])s4)CC3)c(F)c2)C(=O)O1 [Compound No. 38]
<0.125	0.25	0.5	0.5	<0.125	0.5	4	0.5	0.25	CC(=O)NC[C@H]1CN(c2ccc(N3CCN(C(=O)c4ccc([N+](=O)[O-])o4)CC3)c(F)c2)C(=O)O1 [Compound No. 39, (S)-N-[[3-[3-Fluoro-4-[N-1-[4-{2-Furoyl-(5-nitro)acylic}]piperazinyl]phenyl]-2-oxo-5-oxazolidinyl]methyl]-acetamide]
0.5	1	1	1	0.5	0.5	1	0.25	0.5	CC(=O)NC[C@H]1CN(c2ccc(N3CCN(C(=O)C=Cc4ccc([N+](=O)[O-])s4)CC3)c(F)c2)C(=O)O1 [Compound No. 40, (S)-N-[[3-[3-Fluoro-4-[N-1-[4-{2-thiophenoyl-(5-nitro)acrylic}]piperazinyl]phenyl]-2-oxo-5-oxazolidinyl]methyl]-acetamide]
0.5	2	0.5	2	2	2	1	2	2	O=C(CCl)NC[C@H]1CN(c2ccc(N3CCN(Cc4ccc([N+](=O)[O-])o4)CC3)c(F)c2)C(=O)O1 [Compound No. 46]
1	4	2	4	4	4	4	4	4	O=C(CCl)NC[C@H]1CN(c2ccc(N3CCN(Cc4ccc([N+](=O)[O-])s4)CC3)c(F)c2)C(=O)O1 [Compound No. 47, (S)-N-[[3-[3-Fluoro-4[N-1[4-[2-thiophenyl-(5-nitro)methyl}]piperazinyl]-phenyl]-2-oxo-5-oxazolidinyl]methyl]monochloroacetamide]
16	4	16	2	2	4	16	4	4	O=C(CCl)NC[C@H]1CN(c2ccc(N3CCN(Cc4cc(Br)c([N+](=O)[O-])s4)CC3)c(F)c2)C(=O)O1 [Compound No. 48]
16	8	16	8	8	8	16	8	8	CC(Cl)C(=O)NC[C@H]1CN(c2ccc(N3CCN(Cc4cc(Br)c([N+](=O)[O-])s4)CC3)c(F)c2)C(=O)O1 (stereo partly drawn) [Compound No. 51]
